Results taken from PubChem BioAssay (NCI).
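Following 48 hours of exposure in 96-well plates, responses at five concentrations were used to interpolate endpoints linearly. GI50: concentration for 50% inhibition of growth. Definition used: TGI = concentration required for complete inhibition of growth.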

Experiments:
Experiment in all cases: inhibition of tumour cell growth, NCI panel, 48 h
[1] = tested on: ACHN renal
[2] = tested on: HCT-15 colon
[3] = tested on: MALME-3M melanoma
[4] = tested on: NCI-H226 lung
[5] = tested on: NCI-H522 lung
[6] = tested on: OVCAR-3 ovarian
[7] = tested on: RPMI-8226 leukemia
[8] = tested on: SF-539 CNS
[9] = tested on: UO-31 renal
[10] = tested on: A498 renal

SMILES	TGI [1] [µM]	TGI [2] [µM]	TGI [3] [µM]	TGI [4] [µM]	TGI [5] [µM]	TGI [6] [µM]	TGI [7] [µM]	TGI [8] [µM]	TGI [9] [µM]	GI50 [10] [µM]	TGI [10] [µM]	GI50 [1] [µM]	GI50 [2] [µM]	GI50 [5] [µM]	GI50 [6] [µM]	GI50 [7] [µM]	GI50 [9] [µM]	GI50 [3] [µM]	GI50 [4] [µM]	GI50 [8] [µM]
O=[N+]([O-])c1ccc(-c2noc(-c3ccc(Cl)cc3)c2C2=NCCN2)cc1	> 100	> 100	> 100	> 100	> 100	> 100	> 100	> 100	> 100	–	–	–	–	–	–	–	–	–	–	–
Clc1ccc(-c2csc(Nc3cccc(-c4csc(-c5ccccc5)n4)c3)n2)cc1	42.1	14.7	–	–	23.5	32.4	> 50	–	27.4	15.9	28.3	14.6	6.01	10.2	11.4	19.2	12.4	–	–	–
COc1ccc(S(=O)(=O)NC2=NCCN2C(=S)SN2CCn3c2nsc3=S)cc1	26	58.9	24.9	33.2	35	37.4	63.1	–	3.41	19.9	51.1	12.9	20.8	9.62	15.5	14	1.61	9.1	15.6	–
Cn1c(=O)c(NC(=O)C(Cl)(Cl)Cl)nc2ccccc21	–	> 100	> 100	> 100	> 100	> 100	> 100	> 100	> 100	–	> 100	–	–	–	–	–	–	–	–	–
Oc1ccc(O)c(-c2cc(-c3ccc(Cl)cc3)nn2-c2ccccc2)c1	32.6	25.5	–	24.3	5.44	30.7	7.03	52.5	> 100	0.755	13.8	18.6	12.5	2.4	14.5	2.29	12.2	–	5.97	31
NC(=O)c1ccccc1NC(=O)C(=O)Cc1nc2ccccc2[nH]c1=O	> 100	> 100	> 100	–	> 100	> 100	> 100	> 100	> 100	–	> 100	–	–	–	–	–	–	–	–	–
O=C(CSc1ncn[nH]1)C[P+](c1ccccc1)(c1ccccc1)c1ccccc1	> 100	> 100	> 100	–	43.2	> 100	–	> 100	> 100	–	–	–	–	–	–	–	–	–	–	–
O=S(=O)(O)c1ccc(N=Nc2nc(C(F)(F)F)c(C(F)(F)F)[nH]2)cc1	> 100	> 100	> 100	> 100	–	> 100	> 100	65.9	> 100	–	–	–	–	–	–	–	–	–	–	–
CC(=O)OC1=CC2=CC[C@H]3[C@@H]4CCC(=O)[C@@]4(C)CC(=O)[C@]3(S)[C@@]2(C)CC1	> 100	> 100	57.2	–	63	69.3	53.5	43.1	> 100	–	> 100	–	–	–	–	–	–	–	–	–
S=c1[nH]nc(Cc2ccccc2)c(=S)[nH]1	–	> 100	> 100	> 100	> 100	> 100	> 100	> 100	> 100	–	> 81.8	–	–	–	–	–	–	–	–	–
Cc1cn(C2C=CC(CO)O2)c(=O)[nH]c1=O (stereo not drawn)	> 1000	> 1000	> 1000	> 1000	> 1000	> 1000	> 1000	> 1000	> 1000	–	–	–	–	–	–	–	–	–	–	–
Nc1nc(N)c(C=Nc2ccc(Br)cc2)c(Nc2ccc(Br)cc2)n1	28	34.4	39.7	–	33.2	25.3	38.7	24.4	28.1	10.6	22.4	8.96	7.44	8.2	11.8	16.6	6.55	17.8	–	12.1
Nc1cc(O)ccc1N=Nc1ccc(-c2nc3ccccc3[nH]2)cc1	> 100	> 100	–	> 100	> 100	49.6	94.6	–	> 100	–	–	34	37.2	34.2	13.7	30.2	30.5	–	> 100	–
Cc1cccc(C(C)C)c1N1C(=O)C(=O)C(c2nc3ccccc3o2)C(=O)C1=O	> 100	> 100	> 100	> 100	89.5	> 100	–	> 100	> 100	–	> 100	–	–	–	–	–	–	–	–	–
COc1ccccc1C1=C(Nc2ccccc2)C(=O)NC1=O	> 25	> 25	> 25	–	> 25	> 25	> 25	> 25	> 25	> 25	> 25	> 25	> 25	> 25	> 25	> 25	> 25	> 25	–	> 25
Cc1ccc(/C=C2\CN(C(=O)C(Cl)Cl)C/C(=C\c3ccc(C)cc3)C2=O)cc1	0.62	0.638	2.04	0.622	–	0.483	0.484	0.567	0.308	0.203	0.79	0.244	0.185	–	0.209	0.0322	0.158	0.35	0.245	0.227
Cc1nc2c(o1)C(=Nc1ccccc1)c1ccccc1C2=O	19.6	22.6	12.3	–	15.8	6.21	38.1	16.7	20.6	–	54.4	–	–	–	–	–	–	–	–	–
COC(=O)CCC1CCc2c(OC)ccc(OC)c2C1=O (stereo not drawn)	> 100	> 100	> 100	–	> 100	> 100	> 100	> 100	> 100	–	–	–	–	–	–	–	–	–	–	–
